In US8946257B2, “N-containing heteroaryl derivatives as JAK3 kinase inhibitors” (Vectura Limited, priority 2009, dated 2015) one finds inhibition data, which are given here for 13 molecules.

Molecules are shown by their SMILES. Some results are limits rather than exact numbers.

In this experiment the target is T1, catalytic domain of human JAK2 (Homo sapiens, UniProt O60674).
T1 construct: the catalytic domain of human JAK2
Nature of the experiment: Inhibition of JAK2 activity (Z'-Lyte Kinase Assay kit-Tyr 6 Peptide). It is filed as biochemical. As for the experimental part:
The inhibition of JAK2 kinase activity was determined in 384-well assay microplates using the Z′-Lyte® Kinase Assay kit-Tyr 6 Peptide kit, supplied by Invitrogen (Ref: PV4122), following the manufacturer's instructions.
In a final volume of 10 μL per well, 2.5 μL of the product to be tested dissolved in 4% DMSO (final concentration of the product to be tested, 0.1-10000 nM) was incubated with 0.5 μg/well of the catalytic domain of human JAK2, 2 μM of the substrate peptide Z′-Lyte® Tyr 6 and 16 μM of ATP; all components were dissolved in 50 mM pH 7.5 Hepes buffer, 10 mM Magnesium chloride (II), 1 mM EGTA and 0.01% Brij® 35. The reaction was started by the addition of said 16 μM ATP; after incubation for 1 hour at 25° C., 5 μL of A Z′-Lyte® Tyr 6 development reagent was added and the mixture was incubated for 1 hour at 25° C. Phosphorylation was then quantified in each well using a Safire2® fluorescence microplate reader from Tecan.

T1 sequence (O60674 849-1124 limits assumed): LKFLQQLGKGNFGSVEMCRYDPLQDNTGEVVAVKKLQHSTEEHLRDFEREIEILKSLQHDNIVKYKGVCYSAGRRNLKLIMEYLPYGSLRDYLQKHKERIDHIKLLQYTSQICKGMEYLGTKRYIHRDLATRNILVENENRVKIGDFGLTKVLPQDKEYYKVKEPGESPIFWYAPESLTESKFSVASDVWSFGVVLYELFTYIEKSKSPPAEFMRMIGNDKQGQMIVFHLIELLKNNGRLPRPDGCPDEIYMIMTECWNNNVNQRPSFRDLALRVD

As to `O=c1[nH]c2cnc(-c3cnn4ccccc34)nc2n1C1CCOCC1` [Example 3, 2-(Pyrazolo[1,5-a]pyridin-3-yl)-9-(tetrahydro-2H-pyran-4-yl)-7H-purin-8(9H)-one], the inhibition at 1 µM was over 50%. Molecule `CC(C)(C)OC(=O)N1CCC[C@H](n2c(=O)[nH]c3cnc(-c4cnn5ccccc45)nc32)C1` [Example 3b, (S)-tert-butyl 3-(8-oxo-2-(pyrazolo[1,5-a]pyridin3-yl)-7H-purin-9(8H)-yl)piperidine-1-carboxylate] gave an inhibition at 1 µM of over 50%. The molecule `O=c1[nH]c2cnc(-c3cnn4ccccc34)nc2n1C1CCOc2c(F)cccc21` (stereo not shown) [Example 3d, 9-(8-fluorochroman-4-yl)-2-(pyrazolo[1,5-a]pyridin-3-yl)-7H-purin-8(9H)-one] returned an inhibition at 1 µM of over 50%. Turning to `COC(=O)[C@H](C)n1c(=O)[nH]c2cnc(-c3cnn4ccccc34)nc21` [Example 3e, methyl (2S)-2-(8-oxo-2-(pyrazolo[1,5-a]pyridin-3-yl)-7,8-dihydro-9H-purin-9-yl)propanoate], the inhibition at 1 µM is over 50%. Turning to `Cn1c(=O)n(C2CCOc3c(F)cccc32)c2nc(-c3cnn4ccccc34)ncc21` (stereo not shown) [Example 4c, 9-(8-fluorochroman-4-yl)-7-methyl-2-(pyrazolo[1,5-a]pyridin-3-yl)-7H-purin-8(9H)-one], the inhibition at 1 µM is over 50%.

In the case of `Cn1c(=O)n([C@H]2CCCN(C(=O)OC(C)(C)C)C2)c2nc(-c3cnn4ccccc34)ncc21` [Example 5, (S)-tert-Butyl 3-(7-methyl-8-oxo-2-(pyrazolo[1,5-a]pyridine-3-yl)-7H-purin-9(8H)-yl)piperidine-1-carboxylate], the inhibition at 1 µM was over 50%. For `Cn1c(=O)n(C2CCOCC2)c2nc(-c3cnn4ccccc34)ncc21` [Example 5a, 7-methyl-2-(pyrazolo[1,5-a]pyridin-3-yl)-9-(tetrahydro-2H-pyran-4-yl)-7H-purin-8(9H)-one], the inhibition at 1 µM is over 50%. Under `Cn1c(=O)n(C2CCOCC2)c2nc(-c3cnn4ccc(C#N)cc34)ccc21` [Example 5b, 3-(1-methyl-2-oxo-3-(tetrahydro-2H-pyran-4-yl)-2,3-dihydro-1H-imidazo[4,5-b]pyridin-5-yl)pyrazolo[1,5-a]pyridine-5-carbonitrile] stands over 50%; under `Cn1c(=O)n(C2CCC(F)(F)CC2)c2nc(-c3cnn4ccc(C#N)cc34)ncc21` [Example 5e, 3-(9-(4,4-difluorocyclohexyl)-7-methyl-8-oxo-8,9-dihydro-7H-purin-2-yl)pyrazolo[1,5-a]pyridine-5-carbonitrile], over 50%. The molecule `Cn1c(=O)n(C2CCS(=O)(=O)C2)c2nc(-c3cnn4ccc(C#N)cc34)ncc21` (stereo not shown) [Example 5f, 3-(9-(1,1-dioxotetrahydrothien-3-yl)-8,9-dihydro-7-methyl-8-oxopurin-2-yl)pyrazolo[1,5-a]pyridine-5-carbonitrile] showed an inhibition at 1 µM of over 50%. The same measure for `Cn1c(=O)n(Cc2ccccc2F)c2nc(-c3cnn4ccc(C#N)cc34)ncc21` [Example 5h, 3-(9-(2-fluorobenzyl)-7-methyl-8-oxo-8,9-dihydro-7H-purin-2-yl)pyrazolo[1,5-a]pyridine-5-carbonitrile]: over 50%; for `CC(=O)N1CCC(n2c(=O)n(C)c3cnc(-c4cnn5ccc(C(F)(F)F)cc45)nc32)CC1` [Example 5i, 9-(1-acetylpiperidin-4-yl)-7-methyl-2-(5-(trifluoromethyl)pyrazolo[1,5-a]pyridin-3-yl)-7H-purin-8(9H)-one]: over 50%. The molecule `N#CCC(=O)N1CCC[C@H](n2c(=O)[nH]c3ccc(-c4cnn5ccccc45)nc32)C1` [Example 7p, (S)-3-oxo-3-(3-(2-oxo-5-(pyrazolo[1,5-a]pyridin-3-yl)-1H-imidazo[4,5-b]pyridin-3(2H)-yl)piperidin-1-yl)propanenitrile] displayed an inhibition at 1 µM of over 50%.
